The values below come from US20240108623A1, “METHODS OF TREATING CANCER WITH POZIOTINIB” (BOARD OF REGENTS, THE UNIVERSITY OF TEXAS SYSTEM, priority 2021, published 2024).

Test in all cases: Ba/F3 cell drug screening, Cell Titer Glo
Format in all cases: cell-based
In general terms: ATP-based viability assays read luminescence as a measure of living cells.

The target in one assay is T1, EGFR E709_T710del insD (Homo sapiens, UniProt P00533, DEL709-709/T710D).
T1 construct: expressed in transfected cells; host or cells: Ba/F3 (retroviral transduction, pBabe-Puro based vectors)
The following applies: Ba/F3 cells expressing EGFR E709_T710del insD; 72 hours. As for the experimental part:
(§1) Ba/F3 cell generation, drug screening, and IC50 approximations. Ba/F3 cells were obtained as a gift from Dr. Gordon Mills (MD Anderson Cancer Center), and maintained in RPMI (Sigma) containing 10% FBS, 1% penicillin/streptomycin, and 10 ng/ml recombinant mIL-3 (R&D Biosystems). To establish stable Ba/F3 cell lines, Ba/F3 cells were transduced with retroviruses containing mutant EGFR plasmids for 12-24 hours. Retroviruses were generated using Lipofectamine 2000 (Invitrogen) transfections of Phoenix 293T-ampho cells (Orbigen) with pBabe-Puro based vectors listed below in Table 6. Vectors were generated by GeneScript or Bioinnovatise using parental vectors from Addgene listed below in Table 6.
(§2) After 48-72 hours of transduction, 2 μg/ml puromycin (Invitrogen) was added to Ba/F3 cell lines in complete RPMI. To select for EGFR positive cell lines, cells were stained with PE-EGFR (Biolegend) and sorted by FACS. After sorting, EGFR positive cells were maintained in RPMI containing 10% FBS, 1% penicillin/streptomycin, and 1 ng/ml EGF to support cell viability. Drug screening was performed as previously described^41,42. Shortly, cells were plated in 384-well plates (Greiner Bio-One) at 2000-3000 cells per well in technical triplicate. Seven different concentrations of TKIs or DMSO vehicle were added to reach a final volume of 40 μL per well. After 72 hours, 11p L of Cell Titer Glo (Promega) was added to each well. Plates were incubated for a minimum of 10 minutes, and bioluminescence was determined using a FLUOstar OPTIMA plate reader (BMG LABTECH). Raw bioluminescence values were normalized to DMSO control treated cells, and values were plotted in GraphPad Prism. Non-linear regressions were used to fit the normalized data with a variable slope, and IC50 values were determined by GraphPad prism by interpolation of concentrations at 50% inhibition. Drug screens were performed in technical triplicate on each plate and either duplicate or triplicate biological replicates. Mutant to WT ratios (Mut/WT) for each drug were calculated by dividing the IC50 values of mutant cell lines by the average IC50 value of Ba/F3 cells expressing WT EGFR supplemented with 10 ng/ml EGF for each drug. Statistical differences between groups were determined by ANOVA as described in the figure legends.

A further assay deals with T2, EGFR L833F (Homo sapiens, UniProt P00533, L833F).
T2 construct: expressed in transfected cells; host or cells: Ba/F3 (retroviral, pBabe-Puro based vector)
The following applies: Ba/F3 cells expressing EGFR L833F; 72 hours. As for the experimental part:
as §1, §2

For the next assay, the target named is T3, EGFR Ex19del/T790M/G724S (Homo sapiens, UniProt P00533, DEL746-750/G724S/T790M).
T3 construct: expressed in transfected cells; host or cells: Ba/F3 (retroviral transduction, pBabe-Puro based vectors)
The following applies: Ba/F3 cells expressing EGFR Ex19del/T790M/G724S; 72 hours. As for the experimental part: as §1, §2

A further assay concerns the target T4, EGFR L861R (Homo sapiens, UniProt P00533, L861R).
T4 construct: expressed in transfected cells; host or cells: Ba/F3 (retroviral, pBabe-Puro based vector; created by GeneScript from EGFR WT)
The following applies: Ba/F3 cells expressing EGFR L861R; 72 hours. As for the experimental part:
as §1, §2

The target of another assay is T5, EGFR G719A L861Q (Homo sapiens, UniProt P00533, G719A/L861Q).
T5 construct: expressed in transfected cells; host or cells: Ba/F3 (retroviral transduction, pBabe-Puro based vectors)
The following applies: Ba/F3 cells expressing EGFR G719A L861Q; 72 hours. As for the experimental part:
as §1, §2

For a further assay, the target named is T6, EGFR L747S (Homo sapiens, UniProt P00533, L747S).
T6 construct: expressed in transfected cells; host or cells: Ba/F3 (retroviral transduction, pBabe-Puro based vectors)
The following applies: Ba/F3 cells expressing EGFR L747S; 72 hours. As for the experimental part: as §1, §2

Another assay deals with T7, EGFR N771dupN G724S (Homo sapiens, UniProt P00533, DUP771-771/G724S).
T7 construct: expressed in transfected cells; host or cells: Ba/F3 (retroviral, pBabe-Puro based vector; created by GeneScript from EGFR G724S, c.2313_2314insAAC)
The following applies: Ba/F3 cells expressing EGFR N771dupN G724S; 72 hours. As for the experimental part: as §1, §2

The target in the next assay is T8, EGFR E709K G719S (Homo sapiens, UniProt P00533, E709K/G719S).
T8 construct: expressed in transfected cells; host or cells: Ba/F3 (retroviral transduction, pBabe-Puro based vectors)
The following applies: Ba/F3 cells expressing EGFR E709K G719S; 72 hours. As for the experimental part: as §1, §2

The target in a further assay is T9, EGFR E709A G719S (Homo sapiens, UniProt P00533, E709A/G719S).
T9 construct: expressed in transfected cells; host or cells: Ba/F3 (retroviral transduction, pBabe-Puro based vectors)
The following applies: Ba/F3 cells expressing EGFR E709A G719S; 72 hours. As for the experimental part:
as §1, §2

For another assay, the target named is T10, EGFR L858R T790M L792H (Homo sapiens, UniProt P00533, L792H/L858R/T790M).
T10 construct: expressed in transfected cells; host or cells: Ba/F3 (retroviral transduction, pBabe-Puro based vectors)
The following applies: Ba/F3 cells expressing EGFR L858R T790M L792H; 72 hours. As for the experimental part:
as §1, §2

A further assay concerns the target T11, EGFR S768dupSVD V769M (Homo sapiens, UniProt P00533, INS768MDS/V769M).
T11 construct: expressed in transfected cells; host or cells: Ba/F3 (retroviral, pBabe-Puro based vector; created by GeneScript from EGFR S768dupSVD, c.2305G > A)
The following applies: Ba/F3 cells expressing EGFR S768dupSVD V769M; 72 hours. As for the experimental part: as §1, §2

Another assay addresses T12, EGFR K757R (Homo sapiens, UniProt P00533, K757R).
T12 construct: expressed in transfected cells; host or cells: Ba/F3 (retroviral transduction, pBabe-Puro based vectors)
The following applies: Ba/F3 cells expressing EGFR K757R; 72 hours. As for the experimental part: as §1, §2

The target in a further assay is T13, EGFR L858R/L718V (Homo sapiens, UniProt P00533, L718V/L858R).
T13 construct: host or cells: Ba/F3 (retroviral transduction, pBabe-Puro based vectors)
The following applies: Ba/F3 cells expressing EGFR L858R/L718V; 72 hours. As for the experimental part: as §1, §2

For the next assay, the target named is T14, EGFR L718Q (Homo sapiens, UniProt P00533, L718Q).
T14 construct: expressed in transfected cells; host or cells: Ba/F3 (retroviral transduction, pBabe-Puro based vectors)
The following applies: Ba/F3 cells expressing EGFR L718Q; 72 hours. As for the experimental part:
as §1, §2

The target in the next assay is T15, EGFR L858R/T790M/C797S (Homo sapiens, UniProt P00533, C797S/L858R/T790M).
T15 construct: expressed in transfected cells; host or cells: Ba/F3 (retroviral transduction, pBabe-Puro based vectors)
The following applies: Ba/F3 cells expressing EGFR L858R/T790M/C797S; 72 hours. As for the experimental part:
as §1, §2

`C=CC(=O)N1CCC(Oc2cc3c(Nc4ccc(Cl)c(Cl)c4F)ncnc3cc2OC)CC1` [Poziotinib]: the “Response of Cells Comprising PACC EGFR Mutations to Second-Generation TKIs” value at EGFR E709_T710del insD is 0.06231; at EGFR G719A L861Q, 0.09492; at EGFR L747S, 0.01641; at EGFR E709K G719S, 0.01609; on EGFR E709A G719S it was 0.01612; on EGFR K757R it was 0.07563. Also, the “Response of Cells Comprising PACC EGFR Mutations to Second-Generation TKIs” value stood at 0.01621 on EGFR L858R/L718V and 0.1927 at EGFR L718Q. The “Response of Cells Comprising Classical-Like EGFR Mutations to Second-Generation TKIs” value at EGFR L833F came to 0.01839; on EGFR L861R, 0.01648. Also, the results for the “Response of Cells Comprising T790M-like-S EGFR Mutations to Second-Generation TKIs” value on EGFR Ex19del/T790M/G724S and at EGFR L858R T790M L792H were 19.53 and 56.36, respectively. Besides, the “Response of Cells Comprising Ex20ins EGFR Mutations to Poziotinib” value at EGFR N771dupN G724S worked out at 0.2167; at EGFR S768dupSVD V769M, 0.07874. Further, on EGFR L858R/T790M/C797S, the “Response of Cells Comprising T790M-like-R EGFR Mutations to Second-Generation TKIs” value was 935.3.
